{"source": "patent US20230365673A1", "about": "“MEANS FOR REDUCING RADIO- AND CHEMOTHERAPY RESISTANCE AND ADVERSE EFFECTS” (JOHANN WOLFGANG GOETHE-UNIVERSITÄT FRANKFURT AM MAIN, priority 2020, published 2023)", "key": {"[1]": {"tested_on": "human intestinal fibroblasts", "assay": "SA-β-gal staining of irradiated (3×2 Gy) fibroblasts pre-conditioned with IL-1RA low organoid medium", "assay_type": "cell-based", "details": "IL-1RA low conditioned medium, anakinra 20 μg/mL, 72 h", "text": "(§1) (A and B) Quantification of IL-1 and IL-1RA baseline serum levels in non-pCR (n=25) and pCR (n=7) patients before CRT. Data are mean±SD. ** p<0.01 by t-test. (C) IL-1RA serum level association with two SNPs: rs4251961 (T/C) and rs579543 (A/G) using DNA isolated from patients (n=31) pre-CRT peripheral blood mononuclear cells. Data are mean±SD. ** p=0.0052 by t-test. (D) Kaplan-Meier DFS curve of patients with high (n=37) and low (n=37) IL-1RN expression score (median split) based on the RNA sequencing data of pre-CRT biopsies. * p<0.05 by Log-rank (Mantel-Cox) test. […] (H) Paired analysis of sirius red staining of non-pCR patients (n=11) pre versus post-CRT. Scale bars=300 μm. (I) Paired quantification of p21 immunohistochemistry staining of non-pCR patients (n=10) pre versus post CRT. (J) Correlation analysis of pre-CRT serum IL-1RA levels with ratio of p21 induction (post/pre-CRT p21 RNA expression level) (n=10 non pCR patients). * p<0.05 by Spearman r correlation test. […] (M) Nitrite concentration determined by Griess assay in supernatants from WT, IL-1RA high & IL-1RA low conditioned media treated human fibroblasts for 72 h (n=13 independent wells per group). […] (N) Nitrite concentration determined by Griess assay in supernatants from untreated and IL-1α (1 μg/mL) stimulated human fibroblasts for 72 h (n=32 independent wells per group representing 3 independent experiments). […]"}, "colon fibroblasts [2]": {"tested_on": "colon fibroblasts", "assay": "Nitrite concentration by Griess assay in fibroblast supernatants", "assay_type": "cell-based, mouse", "details": "recombinant IL-1α 1 μg/mL, 72 hours", "description": "(§2) (A) Schematic illustration of APTKA organoids supernatant collection and treatment of colon fibroblasts from unchallenged wildtype C57BL/6 mice for 12 h followed by 3×2 Gy irradiation. Microscopic, proteomic & transcriptomic analysis were performed 72 h post first irradiation. (B) Microscopic captures of non-irradiated wildtype (WT) and APTKA conditioned fibroblasts. Remaining captures belong to irradiated fibroblasts: WT, IL-1α (1 μg/mL) stimulated WT, and APTKA conditioned media minus or plus anakinra (20 μg/mL) treated fibroblasts. Scale bars=200 μm. (C) Mass spectrometric analysis of matrisome profiles of 3×2 Gy irradiated (n=8) and non-irradiated (n=8) APTKA conditioned fibroblasts. […] (G) Immunoblot analysis of untreated and irradiated APTKA conditioned fibroblasts. Representative results from one experiment which has been independently repeated 2 times. (H) SA-ß gal staining of untreated and irradiated APTKA fibroblasts. Scale bars=100 μm. (I and J) p21 and pH2AX immunofluorescent staining of untreated and irradiated APTKA fibroblasts. Scale bars=[…]. Data are mean±SD. ** […] and *** p<0.001 by t-test. (K) Nitrite concentration determined by Griess assay in conditioned media from WT, APTK media, APTKA media, IL-1α (1 μg/mL) stimulated and APTKA plus anakinra (20 μg/mL) treated fibroblasts for 72 h (n=10 independent wells per group). […]"}, "colon fibroblasts [3]": {"tested_on": "colon fibroblasts", "assay": "Oxidative DNA damage by 8-OHdG immunofluorescence in fibroblasts", "assay_type": "cell-based, mouse", "details": "recombinant IL-1α 1 μg/mL, 72 hours", "description": "as §2"}, "human fibroblasts": {"tested_on": "human fibroblasts", "assay": "Nitrite concentration by Griess assay in human fibroblast supernatants", "assay_type": "cell-based", "details": "IL-1α 1 μg/mL only, 72 h", "text": "as §1"}}}
{"substance": "anakinra: Kineret®, an interleukin-1 receptor antagonist", "values": [{"measurement": "senescence induction upon irradiation (SA-β-gal staining)", "setting": "[1]", "value": "could be blocked by anakinra"}]}
{"substance": "recombinant IL-1α: recombinant cytokine used to stimulate fibroblasts", "values": [{"measurement": "nitrite levels in fibroblast supernatants", "setting": "colon fibroblasts [2]", "value": "significantly elevated"}, {"measurement": "oxidative DNA damage (8-OHdG immunofluorescence)", "setting": "colon fibroblasts [3]", "value": "increase in oxidative DNA damage"}, {"measurement": "nitrite production by fibroblasts", "setting": "human fibroblasts", "value": "higher nitrite production by fibroblasts"}]}
